Patent US9999221B2, “Herbicide combination containing pelargonic acid and defined ALS inhibitors” (BAYER CROPSCIENCE AKTIENGESELLSCHAFT, priority 2013, dated 2018)

Assays:
Experiment in all cases: Post-emergence test, % damage
Assay type in all cases: in vivo
Conditions in all cases: after 48 days
Chenopodium album = system: Chenopodium album
Description: (§1) After 48 days, the degree of damage to the plants is rated in % damage in comparison to the development of the untreated control.

Poa annua = system: Poa annua
Description: as §1

Festuca ovina = system: Festuca ovina
Description: as §1

Plantago major = system: Plantago major
Description: as §1

Taraxacum officinale = system: Taraxacum officinale
Description: as §1

Trifolium repens = system: Trifolium repens
Description: as §1

[1] = Iodosulfuron-methyl 1 g of active compound/ha
[2] = Iodosulfuron-methyl 1.25 g of active compound/ha
[3] = Iodosulfuron-methyl 2.5 g of active compound/ha
[4] = Iodosulfuron-methyl 10 g of active compound/ha
[5] = Pelargonic acid 10000 g of active compound/ha
[6] = Pelargonic acid 20000 g of active compound/ha
[7] = Pelargonic acid 30000 g of active compound/ha

For “4-iodo-2-[(4-methoxy-6-methyl-1,3,5-triazin-2-yl)carbamoylsulfamoyl]benzoate, sodium salt [Iodosulfuron-methyl]”, the “herbicidal effect [%]” value (Chenopodium album; [1]) was 0%, the “herbicidal effect [%]” value (Chenopodium album; [2]) was 0% and the “herbicidal effect [%]” value (Chenopodium album; [3]) was 10%. For the same compound, the “herbicidal effect [%]” value (Chenopodium album; [4]) was 40%, the “herbicidal effect [%]” value (Poa annua; [1]) was 0% and the “herbicidal effect [%]” value (Poa annua; [2]) was 0%. The “herbicidal effect [%]” value (Poa annua; [3]) was 0%, the “herbicidal effect [%]” value (Poa annua; [4]) was 0% and the “herbicidal effect [%]” value (Festuca ovina; [1]) was 0%. The “herbicidal effect [%]” value (Festuca ovina; [2]) was 0%, the “herbicidal effect [%]” value (Festuca ovina; [3]) was 0% and the “herbicidal effect [%]” value (Festuca ovina; [4]) was 6.7%. The “herbicidal effect [%]” value (Plantago major; [1]) was 0%, the “herbicidal effect [%]” value (Plantago major; [2]) was 3% and the “herbicidal effect [%]” value (Plantago major; [3]) was 30%. The “herbicidal effect [%]” value (Plantago major; [4]) was 53.3%, the “herbicidal effect [%]” value (Taraxacum officinale; [1]) was 18.3% and the “herbicidal effect [%]” value (Taraxacum officinale; [2]) was 18%. For the same compound, the “herbicidal effect [%]” value (Taraxacum officinale; [3]) was 42%, the “herbicidal effect [%]” value (Taraxacum officinale; [4]) was 85% and the “herbicidal effect [%]” value (Trifolium repens; [1]) was 18.3%. The “herbicidal effect [%]” value (Trifolium repens; [2]) was 32%, the “herbicidal effect [%]” value (Trifolium repens; [3]) was 45% and the “herbicidal effect [%]” value (Trifolium repens; [4]) was 80%.

For CCCCCCCCC(=O)O [Pelargonic acid, nonanoic acid], the “herbicidal effect [%]” value (Chenopodium album; [5]) was 0%, the “herbicidal effect [%]” value (Chenopodium album; [6]) was 10% and the “herbicidal effect [%]” value (Chenopodium album; [7]) was 20%. For the same compound, the “herbicidal effect [%]” value (Poa annua; [5]) was 0%, the “herbicidal effect [%]” value (Poa annua; [6]) was 0% and the “herbicidal effect [%]” value (Poa annua; [7]) was 0%. For the same compound, the “herbicidal effect [%]” value (Festuca ovina; [5]) was 0%, the “herbicidal effect [%]” value (Festuca ovina; [6]) was 0% and the “herbicidal effect [%]” value (Festuca ovina; [7]) was 6.7%. For the same compound, the “herbicidal effect [%]” value (Plantago major; [5]) was 0%, the “herbicidal effect [%]” value (Plantago major; [6]) was 0% and the “herbicidal effect [%]” value (Plantago major; [7]) was 13.3%. The “herbicidal effect [%]” value (Taraxacum officinale; [5]) was 6.7%, the “herbicidal effect [%]” value (Taraxacum officinale; [6]) was 7% and the “herbicidal effect [%]” value (Taraxacum officinale; [7]) was 20%. For the same compound, the “herbicidal effect [%]” value (Trifolium repens; [5]) was 0%, the “herbicidal effect [%]” value (Trifolium repens; [6]) was 0% and the “herbicidal effect [%]” value (Trifolium repens; [7]) was 3.3%.
